Among the test systems are HCT-15; SF-268; DU-145; NCI/ADR-RES; COLO 205; KM12; SK-MEL-5; HT-29; NCI-H23; SF-295; MDA-MB-231; K562; SW-620; HL-60; PC-3; RPMI-8226; HOP-62; A549; TK-10; IGROV-1.
Common to all, as to experiment: growth of human tumour cells (NCI), 48 h

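Cells were grown in 96-well plates and exposed to each compound for 48 hours at five concentrations; endpoints were interpolated linearly between bracketing concentrations, or set to the highest concentration if not reached. At the GI50, growth is halved.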 Calls of active or inactive are those of the source. No stated cut-off is given here; in the data, active = GI50 up to about 1.1 µM and inactive = higher. A value given as a limit tells only on which side of the number the result lay.

Turning to `Cc1cccc(CNc2[nH]cnc3nncc2-3)c1`, the GI50 in the test on HCT-15 is greater than 100 µM; in the test on SF-268, > 100 µM (inactive); with DU-145, > 100 µM (inactive); in the test on NCI/ADR-RES, 90.2 µM (inactive); with COLO 205 it was 95.9 µM (inactive); with KM12, > 100 µM (inactive). The GI50 with SK-MEL-5 is 64.4 µM (inactive); in the test with HT-29 it was > 100 µM (inactive); in the test on NCI-H23 it was > 100 µM (inactive); in the test on SF-295, > 100 µM (inactive); with MDA-MB-231, > 100 µM (inactive); in the test on K562, 47.1 µM (inactive). The GI50 was > 100 µM (inactive) with SW-620; > 100 µM (inactive) with HL-60; > 100 µM (inactive) with PC-3; 44.3 µM (inactive) with RPMI-8226; > 100 µM (inactive) in the test with HOP-62; > 100 µM (inactive) in the test with A549. Moreover, the GI50 in the test on TK-10 was > 100 µM (inactive); in the test on IGROV-1, 64.4 µM (inactive).
Take `c1ccc(CSCCC(SCc2ccccc2)SCc2ccccc2)cc1`: the GI50 in the test with HCT-15 was greater than 10 µM; with SF-268, > 10 µM (inactive); in the test on DU-145 it was > 10 µM (inactive); in the test with NCI/ADR-RES, > 10 µM (inactive); in the test with COLO 205 it was > 10 µM (inactive); in the test on KM12, > 10 µM (inactive). Further, the GI50 with SK-MEL-5, in the test on HT-29, in the test with NCI-H23, with SF-295, in the test with MDA-MB-231 and with K562 was > 10 µM (inactive) throughout. Also, the GI50 in the test on SW-620, with HL-60, in the test with PC-3, in the test with RPMI-8226, in the test on HOP-62 and with A549 was > 10 µM (inactive) each time. Further, the GI50 with TK-10 and in the test on IGROV-1 was > 10 µM (inactive) in each case.
In the case of `COC(=O)[C@]12CC[C@H]3CN(S(=O)(=O)c4ccc(C)cc4)[C@H]([C@H]31)[C@H](c1ccco1)N2S(=O)(=O)c1ccc(C)cc1`, the GI50 was 34 µM in the test on HCT-15; 42.3 µM (inactive) in the test with SF-268; 40.6 µM (inactive) in the test with DU-145; 29 µM (inactive) with NCI/ADR-RES; 20.5 µM (inactive) in the test with COLO 205; 32.9 µM (inactive) with KM12. Moreover, the GI50 was 37.2 µM (inactive) in the test on SK-MEL-5; 38.8 µM (inactive) with HT-29; 48.1 µM (inactive) with NCI-H23; 35.6 µM (inactive) with SF-295; 55.8 µM (inactive) in the test on MDA-MB-231; 30.2 µM (inactive) in the test on K562. For the same molecule, the GI50 with SW-620 was 70.1 µM (inactive); with HL-60, 30.2 µM (inactive); with PC-3, 28.8 µM (inactive); with RPMI-8226 it was 20 µM (inactive); with HOP-62 it was 66.4 µM (inactive); in the test on A549, 31.2 µM (inactive). Also, the GI50 with TK-10 was 56.5 µM (inactive); in the test on IGROV-1, 35.8 µM (inactive).
`O=C[C@@H](CO)O[C@H](C=O)n1cnc2c(=O)nc[nH]c21`: the GI50 in the test with HCT-15 is 73.8 µM; with SF-268 it was 431 µM (inactive); in the test on DU-145 it was 261 µM (inactive); in the test on NCI/ADR-RES it was 438 µM (inactive); with COLO 205 it was 288 µM (inactive); in the test on KM12 it was 335 µM (inactive). In addition, the GI50 is 378 µM (inactive) in the test on SK-MEL-5; 486 µM (inactive) with HT-29; 243 µM (inactive) in the test on NCI-H23; 619 µM (inactive) with SF-295; 128 µM (inactive) in the test with MDA-MB-231; 83.9 µM (inactive) in the test on K562. The GI50 with SW-620 was 126 µM (inactive); in the test with HL-60, 65.8 µM (inactive); in the test on PC-3, 376 µM (inactive); in the test with RPMI-8226, 131 µM (inactive); in the test with HOP-62, 264 µM (inactive); in the test on A549 it was 849 µM (inactive). Further, the GI50 with TK-10 is 596 µM (inactive); in the test on IGROV-1 it was 188 µM (inactive).
With `COc1cc(C2SC(=N)Nc3c2c(C)nn3C(=O)c2ccc(Cl)cc2)cc(OC)c1OC` (stereo not given), the GI50 is greater than 10 µM in the test with HCT-15; > 10 µM (inactive) with SF-268; > 10 µM (inactive) in the test with DU-145; > 10 µM (inactive) with NCI/ADR-RES; > 10 µM (inactive) with COLO 205; > 10 µM (inactive) with KM12. Further, the GI50 with SK-MEL-5, with HT-29, in the test with NCI-H23, in the test on SF-295, in the test with MDA-MB-231 and in the test with K562 was > 10 µM (inactive) throughout. Also, the GI50 in the test with SW-620, with HL-60, in the test on PC-3, in the test on RPMI-8226, in the test with HOP-62 and in the test on A549 was > 10 µM (inactive) throughout. For the same molecule, the GI50 in the test with TK-10 and in the test with IGROV-1 was > 10 µM (inactive) throughout.
For `COc1cc(OC)c2c(c1)OC(c1cccnc1)C(c1ccccc1)C2=O` (stereo not given), the GI50 with HCT-15 was greater than 100 µM; in the test on SF-268, > 100 µM (inactive); with DU-145, > 100 µM (inactive); in the test on NCI/ADR-RES it was 72.1 µM (inactive); in the test on COLO 205 it was > 100 µM (inactive); in the test with KM12, > 100 µM (inactive). The GI50 in the test with SK-MEL-5, in the test on HT-29, with NCI-H23, with SF-295, with MDA-MB-231 and with K562 was > 100 µM (inactive) each time. Further, the GI50 in the test on SW-620 was > 100 µM (inactive); in the test with HL-60, > 100 µM (inactive); with PC-3, 93.3 µM (inactive); in the test on RPMI-8226, > 100 µM (inactive); with HOP-62, > 100 µM (inactive); in the test with A549, > 100 µM (inactive). Also, the GI50 in the test with TK-10 and with IGROV-1 was > 100 µM (inactive) in each case.
For the molecule `COc1cc(/C=N/NC(=O)c2c(Cl)c(Cl)c(Cl)c(Cl)c2-c2nc3cc(C(=O)c4ccccc4)ccc3[nH]2)ccc1O`, the GI50 in the test with HCT-15 is 15.6 µM; with SF-268 it was 36.9 µM (inactive); with DU-145, 73.8 µM (inactive); in the test with NCI/ADR-RES, 20.9 µM (inactive); with COLO 205, 24.8 µM (inactive); with KM12, 46.5 µM (inactive). Besides, the GI50 in the test with SK-MEL-5 is 20.4 µM (inactive); in the test on HT-29 it was 40.1 µM (inactive); in the test on NCI-H23, 28.4 µM (inactive); in the test on SF-295 it was 29.9 µM (inactive); with MDA-MB-231, 26.8 µM (inactive); with K562 it was 15.8 µM (inactive). Besides, the GI50 in the test on SW-620 was 34.5 µM (inactive); in the test with HL-60 it was 19.2 µM (inactive); with PC-3 it was 35.2 µM (inactive); with RPMI-8226, 30.8 µM (inactive); in the test with HOP-62, 38.5 µM (inactive); with A549, 42.1 µM (inactive). The GI50 is 45.5 µM (inactive) with TK-10 and 47.6 µM (inactive) with IGROV-1.
Regarding `COc1ccc2c(c1OC)OCC(CN(C)C)C2=O` (stereo not given), the GI50 with HCT-15 is 18.1 µM; in the test with SF-268 it was 25.4 µM (inactive); in the test with DU-145, 18.8 µM (inactive); in the test with NCI/ADR-RES it was 27.7 µM (inactive); in the test on COLO 205, 8.07 µM (inactive); in the test on KM12 it was 16.5 µM (inactive). In addition, the GI50 in the test with SK-MEL-5 is 17.7 µM (inactive); in the test on HT-29 it was 15.4 µM (inactive); in the test on NCI-H23, 17.1 µM (inactive); in the test with SF-295, > 100 µM (inactive); with MDA-MB-231 it was 18.8 µM (inactive); in the test on K562, 3.63 µM (inactive). Further, the GI50 was 7.45 µM (inactive) with SW-620; 2.54 µM (inactive) with HL-60; 18.7 µM (inactive) with PC-3; 2.42 µM (inactive) in the test on RPMI-8226; > 51.8 µM (inactive) with HOP-62; 26.1 µM (inactive) with A549. For the same molecule, the GI50 in the test on TK-10 is 16.7 µM (inactive); in the test on IGROV-1, 18.6 µM (inactive).
As for `O=c1oc2cc(O)ccc2cc1-c1nc2ccccc2o1`, the GI50 is 34.4 µM in the test on HCT-15; 32.2 µM (inactive) in the test on SF-268; 33.3 µM (inactive) with DU-145; 36.4 µM (inactive) with NCI/ADR-RES; 30.8 µM (inactive) with COLO 205; 25.8 µM (inactive) in the test with KM12. The GI50 in the test with SK-MEL-5 was 19.5 µM (inactive); in the test with HT-29, 33.7 µM (inactive); in the test on NCI-H23 it was 32.6 µM (inactive); in the test on SF-295, 44.9 µM (inactive); in the test with MDA-MB-231, 35.6 µM (inactive); in the test on K562, 30.4 µM (inactive). The GI50 in the test on SW-620 was 40.3 µM (inactive); with HL-60, 23.8 µM (inactive); in the test with PC-3 it was 42.4 µM (inactive); in the test on RPMI-8226 it was 24.3 µM (inactive); with HOP-62 it was 23.3 µM (inactive); in the test on A549, 29.5 µM (inactive). The GI50 was 37 µM (inactive) in the test with TK-10 and 29.1 µM (inactive) with IGROV-1.
With `O=c1c(C(c2cccc(C(c3c(O)oc4ccccc4c3=O)c3c(O)oc4ccccc4c3=O)c2)c2c(O)oc3ccccc3c2=O)c(O)oc2ccccc12`, the GI50 is 63.8 µM in the test on HCT-15; 28.4 µM (inactive) with SF-268; 39.4 µM (inactive) with DU-145; > 100 µM (inactive) in the test on NCI/ADR-RES; 86.3 µM (inactive) with COLO 205; 30.5 µM (inactive) in the test with KM12. The GI50 with SK-MEL-5 was 13.2 µM (inactive); in the test with HT-29, 36.9 µM (inactive); in the test on NCI-H23, 22.8 µM (inactive); with SF-295 it was 41.5 µM (inactive); in the test on MDA-MB-231, 20.8 µM (inactive); in the test with K562, 27.9 µM (inactive). Moreover, the GI50 in the test with SW-620 was > 100 µM (inactive); in the test with HL-60, 21.7 µM (inactive); in the test on PC-3, 37.9 µM (inactive); with RPMI-8226, 33.2 µM (inactive); in the test on HOP-62, 30.3 µM (inactive); in the test with A549, 60.3 µM (inactive). The GI50 with TK-10 was > 100 µM (inactive); with IGROV-1, 34 µM (inactive).

The record behind these values is ChEMBL document CHEMBL1201862, “PubChem BioAssay data set” (2004).
